According to patent US11945801B2, “Bicyclic aza compounds as muscarinic M1 and/or M4 receptor agonists” (Heptares Therapeutics Limited, priority 2018, dated 2024):
Where two headings read alike, the source gives them in different places.

Legend:
Assay type in all cases: cell-based
[1] = target: T1, human muscarinic M2 receptor (Homo sapiens, UniProt P08172); assay: Alphascreen Surefire phospho-ERK1/2 functional assay, M2; conditions: for EC50: agonist 5 min, 37° C., read-out: pEC50 M2 (converted); for Emax: CHO
T1 sequence (P08172 1-466): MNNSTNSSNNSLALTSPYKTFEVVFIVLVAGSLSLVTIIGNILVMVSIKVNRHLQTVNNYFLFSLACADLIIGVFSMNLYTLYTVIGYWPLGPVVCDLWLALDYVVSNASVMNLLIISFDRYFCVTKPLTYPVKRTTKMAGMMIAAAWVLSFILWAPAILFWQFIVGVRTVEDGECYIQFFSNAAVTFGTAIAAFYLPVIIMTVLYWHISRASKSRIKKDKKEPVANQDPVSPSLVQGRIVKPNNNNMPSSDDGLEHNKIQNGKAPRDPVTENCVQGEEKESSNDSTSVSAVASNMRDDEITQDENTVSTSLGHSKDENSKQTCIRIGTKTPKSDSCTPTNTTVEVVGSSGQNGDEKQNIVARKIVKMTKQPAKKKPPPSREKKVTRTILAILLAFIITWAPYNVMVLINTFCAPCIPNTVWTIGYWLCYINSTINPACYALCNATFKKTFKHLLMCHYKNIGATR
Description: (§1) ERK1/2 phosphorylation is a downstream consequence of both Gq/11 and Gi/o protein coupled receptor activation, making it highly suitable for the assessment of M1, M3 (Gq/11 coupled) and M2, M4 receptors (Gi/o coupled), rather than using different assay formats for different receptor subtypes. CHO cells stably expressing the human muscarinic M1, M2, M3 or M4 receptor were plated (25K/well) onto 96-well tissue culture plates in MEM-alpha+10% dialysed FBS. Once adhered, cells were serum-starved overnight. Agonist stimulation was performed by the addition of 5 μL agonist to the cells for 5 min (37° C.). Media was removed and 50 μL of lysis buffer added. After […], a 4 μL sample was transferred to 384-well plate and 7 μL of detection mixture added.
(§2) Isomer assignment (Isomer 1, Isomer 2, etc.) is based on the retention time of the compound using the separation technique that was performed in the final purification step. By implication, this could be reversed phase HPLC, chiral HPLC or chiral SFC retention time, and this will vary from compound to compound.

[2] = target: T2, human muscarinic M4 receptor (Homo sapiens, UniProt P08173); assay: Alphascreen Surefire phospho-ERK1/2 functional assay, M4; conditions: for EC50: agonist 5 min, 37° C., read-out: pEC50 M4 (converted); for Emax: CHO
T2 construct: expressed in transfected cells
T2 sequence (P08173 1-479): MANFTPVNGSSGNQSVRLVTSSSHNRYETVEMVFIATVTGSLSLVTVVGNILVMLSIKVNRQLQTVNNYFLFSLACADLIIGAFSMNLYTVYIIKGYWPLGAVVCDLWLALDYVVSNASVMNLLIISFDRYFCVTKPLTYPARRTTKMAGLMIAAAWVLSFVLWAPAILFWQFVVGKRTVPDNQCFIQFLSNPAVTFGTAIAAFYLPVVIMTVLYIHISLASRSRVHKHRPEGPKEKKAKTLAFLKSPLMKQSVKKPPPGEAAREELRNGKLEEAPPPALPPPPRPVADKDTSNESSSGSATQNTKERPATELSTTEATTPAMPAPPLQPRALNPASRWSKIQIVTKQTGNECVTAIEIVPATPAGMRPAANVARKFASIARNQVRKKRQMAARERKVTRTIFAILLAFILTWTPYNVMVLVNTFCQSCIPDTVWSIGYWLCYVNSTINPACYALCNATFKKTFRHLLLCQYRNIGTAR
Description: as §1, §2

[3] = target: T3, human muscarinic M1 receptor (Homo sapiens, UniProt P11229); assay: Alphascreen Surefire phospho-ERK1/2 functional assay, M1; conditions: for EC50: agonist 5 min, 37° C., read-out: pEC50 M1 (converted); for Emax: CHO
T3 sequence (P11229 1-460): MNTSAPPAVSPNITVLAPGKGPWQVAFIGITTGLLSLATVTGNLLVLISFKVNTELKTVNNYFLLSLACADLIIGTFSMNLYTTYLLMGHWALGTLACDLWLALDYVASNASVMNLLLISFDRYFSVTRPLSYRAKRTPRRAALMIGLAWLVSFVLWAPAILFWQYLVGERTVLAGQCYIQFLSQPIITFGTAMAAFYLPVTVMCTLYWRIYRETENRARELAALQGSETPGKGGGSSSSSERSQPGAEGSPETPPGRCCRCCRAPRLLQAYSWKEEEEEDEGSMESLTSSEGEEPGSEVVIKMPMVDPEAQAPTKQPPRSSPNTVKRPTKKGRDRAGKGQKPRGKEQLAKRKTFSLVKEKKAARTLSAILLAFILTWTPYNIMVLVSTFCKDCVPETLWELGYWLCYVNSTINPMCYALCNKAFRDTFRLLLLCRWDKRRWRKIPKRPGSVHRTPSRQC
Description: as §1, §2

[4] = target: T4, human muscarinic M3 receptor (Homo sapiens, UniProt P20309); assay: Alphascreen Surefire phospho-ERK1/2 functional assay, M3; conditions: for EC50: agonist 5 min, 37° C., read-out: pEC50 M3 (converted); for Emax: CHO
T4 construct: expressed in transfected cells
Description: as §1, §2

[5] = CHO cells stably expressing human M2
[6] = read-out: % Emax cf. ACh, M2, CHO cells stably expressing human M2, Emax relative to ACh
[7] = CHO cells stably expressing human M4
[8] = read-out: % Emax cf. ACh, M4, CHO cells stably expressing human M4, Emax relative to ACh
[9] = CHO cells stably expressing human M1
[10] = read-out: % Emax cf. ACh, M1, CHO cells stably expressing human M1, Emax relative to ACh
[11] = CHO cells stably expressing human M3
[12] = read-out: % Emax cf. ACh, M3, CHO cells stably expressing human M3, Emax relative to ACh

T4 sequence (P20309 whole entry): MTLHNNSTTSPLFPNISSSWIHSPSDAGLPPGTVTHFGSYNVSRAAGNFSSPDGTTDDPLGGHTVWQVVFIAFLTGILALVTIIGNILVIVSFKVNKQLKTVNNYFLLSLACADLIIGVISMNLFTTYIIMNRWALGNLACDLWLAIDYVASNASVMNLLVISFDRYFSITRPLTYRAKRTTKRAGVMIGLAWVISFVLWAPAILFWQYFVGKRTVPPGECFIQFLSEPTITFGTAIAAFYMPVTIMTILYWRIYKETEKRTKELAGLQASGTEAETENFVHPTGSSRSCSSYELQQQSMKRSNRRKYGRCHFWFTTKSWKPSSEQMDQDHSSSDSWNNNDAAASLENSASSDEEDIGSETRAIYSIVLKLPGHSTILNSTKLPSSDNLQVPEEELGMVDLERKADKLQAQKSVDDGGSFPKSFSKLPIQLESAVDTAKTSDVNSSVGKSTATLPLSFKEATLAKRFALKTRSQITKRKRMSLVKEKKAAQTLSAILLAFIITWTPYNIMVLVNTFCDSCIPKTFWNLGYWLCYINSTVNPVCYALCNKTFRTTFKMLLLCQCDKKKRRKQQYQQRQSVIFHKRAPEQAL

Emax [1, 6] [%] | EC50 [2, 7] [nM] | Emax [2, 8] [%] | EC50 [3, 9] [nM] | Emax [3, 10] [%] | Emax [4, 12] [%] | % Emax cf. ACh, M2 ([1]; CHO cells stably expressing human M2, Emax relative to ACh) [%] | % Emax cf. ACh, M4 ([2]; CHO cells stably expressing human M4, Emax relative to ACh) [%] | % Emax cf. ACh, M1 ([3]; CHO cells stably expressing human M1, Emax relative to ACh, listed as 2-2 Isomer 2) [%] | % Emax cf. ACh, M3 ([4]; CHO cells stably expressing human M3, Emax relative to ACh) [%] | SMILES | EC50 [1, 5] [nM] | EC50 [4, 11] [nM] | Emax ([1]; read-out: % Emax cf. ACh, M2) [%] | Emax ([2]; read-out: % Emax cf. ACh, M4) [%] | Emax ([3]; read-out: % Emax cf. ACh, M1) [%] | Emax ([4]; read-out: % Emax cf. ACh, M3) [%]
9 | 490 | 50 | 117 | 86 | 5 | – | – | – | – | CCOC(=O)N1CC2CCC1CC2N1CC(OC(=O)N2CCCCCC2)C1 (single isomer, unassigned) [Example 6-4 Isomer 1, Ethyl 5-(3-((azepane-1-carbonyl)oxy)azetidin-1-yl)-2-azabicyclo[2.2.2]octane-2-carboxylate] | > 20000 | > 20000 | – | – | – | –
13 | > 20000 | 9 | 209 | 67 | 6 | – | – | – | – | CCOC(=O)N1CC2CCC1CC2N1CC(CC(=O)N(CC)CC)C1 (single isomer, unassigned) [Example 2-1 Isomer 1, Ethyl-5-(3-(2-(diethylamino)-2-oxoethyl)azetidin-1-yl)-2-azabicyclo[2.2.2]octane-2-carboxylate] | > 20000 | > 20000 | – | – | – | –

More lines, now with the values behind:

SMILES | Emax [1, 6] [%] | EC50 [2, 7] [nM] | Emax [2, 8] [%] | EC50 [3, 9] [nM] | Emax [3, 10] [%] | Emax [4, 12] [%] | % Emax cf. ACh, M2 ([1]; CHO cells stably expressing human M2, Emax relative to ACh) [%] | % Emax cf. ACh, M4 ([2]; CHO cells stably expressing human M4, Emax relative to ACh) [%] | % Emax cf. ACh, M1 ([3]; CHO cells stably expressing human M1, Emax relative to ACh, listed as 2-2 Isomer 2) [%] | % Emax cf. ACh, M3 ([4]; CHO cells stably expressing human M3, Emax relative to ACh) [%] | EC50 [1, 5] [nM] | EC50 [4, 11] [nM] | Emax ([1]; read-out: % Emax cf. ACh, M2) [%] | Emax ([2]; read-out: % Emax cf. ACh, M4) [%] | Emax ([3]; read-out: % Emax cf. ACh, M1) [%] | Emax ([4]; read-out: % Emax cf. ACh, M3) [%]
CCOC(=O)N1C2CCCC1CC(N1CC(CC(=O)N3CCCCC3)C1)C2 (single isomer, unassigned) [Example 3-3 Isomer 1, Ethyl-3-(3-(2-oxo-2-(piperidin-1-yl)ethyl)azetidin-1-yl)-9-azabicyclo[3.3.1]nonane-9-carboxylate] | – | 1290 | – | 316 | – | – | – | – | – | – | > 20000 | > 20000 | 5 | 55 | 117 | 9
CCOC(=O)N1C2CCC1CC(N1CC(CC(=O)N(CC)CC)C1)C2 (single isomer, unassigned) [Example 1-1 Isomer 2, Ethyl-3-(3-(2-(diethylamino)-2-oxoethyl)azetidin-1-yl)-8-azabicyclo[3.2.1]octane-8-carboxylate] | – | 200 | – | 316 | – | – | – | – | – | – | 1260 | > 20000 | 58 | 85 | 100 | 28
CCOC(=O)N1CC2CCC1CC2N1CC(CC(=O)N(CC)C(C)C)C1 (single isomer, unassigned) [Example 2-2 Isomer 2, Ethyl-5-(3-(2-(ethyl(isopropyl)amino)-2-oxoethyl)azetidin-1-yl)-2-azabicyclo[2.2.2]octane-2-carboxylate] | – | > 20000 | – | 229 | – | – | 6 | 31 | 65 | 7 | – | – | – | – | – | –
